The text below walks through data of PMC9693455, “Synthesis of Tetrasubstituted Phosphorus Analogs of Aspartic Acid as Antiproliferative Agents” (Molecules, 2022).

Data set [1] concerns MRC5 lung fibroblast cells. The data set can be described thus: Selective toxicity, CCK-8 assay, non-malignant MRC5 lung fibroblasts. In kind it is cell-based. As to conditions: for IC50: Homo sapiens, non-malignant MRC5 lung fibroblasts, 48 h exposure, CCK-8. Here is the method: (§1) In vitro cytotoxicity of the phosphorated aspartic acid derivatives was evaluated by testing their antiproliferative activities against several human cancer cell lines. Cell counting kit (CCK-8) assay was used for the evaluation of growth inhibition. […] In addition, trisubstituted aminophosphonate 9a (Imine precursor, R^1 = H, R^2 = P(O)(OMe)2) and tetrasubstituted aminophosphonate 18 (R^1 = Me, R^2 = P(O)(OMe)2) are used as templates in order to evaluate the effect of the substituents (Table 1).
(§2) Human epithelial lung carcinoma cells (A549) (ATCC® CCL-185™, ATCC, Manassas, VA, USA) were grown in Kaighn’s Modification of Ham’s F-12 Medium (ATCC® 30-2004™, ATCC, Manassas, VA, USA) and lung fibroblast cells (MRC5) (ATCC® CCL-171™, ATCC, Manassas, VA, USA) were grown in Eagle’s Minimum Essential Medium (EMEM, ATCC® 30-2003™, ATCC, Manassas, VA, USA). Epithelial ovary adenocarcinoma cells (SKOV3) (ATCC® HTB-77™, ATCC, Manassas, VA, USA) were grown in McCoy’s 5A medium (ATCC® 30-2007™, ATCC, Manassas, VA, USA). All of them were supplemented with 10% of fetal bovine serum (FBS) (Sigma-Aldrich, Madrid, Spain) and with 1% of NORMOCIN solution (Thermo Fisher, Waltham, MA, USA). Cells were incubated at 37 °C and 5% CO2 atmosphere, and were split every 3–4 days to maintain monolayer coverage. For the cytotoxicity experiments, the A549 and SKOV3 cells were seeded in 96-well plates at a density of 2.5–3 × 10^3 cells per well and incubated overnight to achieve 70% of confluence at the time of exposition to the cytotoxic compound.
(§3) Cells were exposed to different concentrations of the cytotoxic compounds and were incubated for 48 h. Then, 10 µL of cell counting kit-8 was added into each well for an additional two hours’ incubation at 37 °C. The absorbance of each well was determined by an Automatic Elisa Reader System (Thermo Scientific Multiskan FC Automatic Elisa Reader System, Thermo Scientific, Shanghai, China) at 450 nm wavelength.
(Formazan colour is commonly taken as a measure of viable cells.)

The subject of data set [2] is SKOV3 (human ovarian carcinoma) cells. The data set can be described thus: In vitro cytotoxicity (antiproliferative activity), CCK-8 assay, SKOV3. In kind it is cell-based. Particulars: for IC50: Homo sapiens, SK-OV-3, 48 h exposure, CCK-8. Here is the method: as §1, §2, §3
Data set [3] relates to A549 (carcinomic human alveolar basal epithelial) cells. The data set can be described thus: In vitro cytotoxicity (antiproliferative activity), CCK-8 assay, A549. Particulars: 48 h exposure, CCK-8. It counts as cell-based. On the procedure:
as §1, §2, §3

Structures are written as SMILES.

`CCOC(=O)CC(NS(=O)(=O)c1ccc(C)cc1)(c1cccc(F)c1)P(=O)(OC)OC` (stereo not shown) [7k, Ethyl 3-(dimethoxyphosphoryl)-3-(3-fluorophenyl)-3-((4-methylphenyl)sulfonamido)propanoate] displayed a melting point of 111 to 112 °C. In data set [1], this compound yielded an IC50 of more than 50 µM. In data set [2], this compound showed a half-maximal inhibitory concentration (IC50) of more than 50 µM. 0.59 ± 0.09 µM corresponded to half-maximal inhibition in data set [3] (IC50). The same compound gave a half-inhibitory concentration (IC50) in data set [3] (Homo sapiens, A549, 48 h) of 0.34 µM.

Regarding `CCOC(=O)CC(NS(=O)(=O)c1ccc(C)cc1)(c1ccc(Br)cc1)P(=O)(OC)OC` (stereo not shown) [7e, Ethyl 3-(4-bromophenyl)-3-(dimethoxyphosphoryl)-3-((4-methylphenyl)sulfonamido)propanoate], the melting point was in the range of 138 to 139 °C. In data set [1], the 50% inhibitory concentration (IC50) was more than 50 µM. Besides, the IC50 in data set [2] is more than 50 µM. In data set [3] (Homo sapiens, A549, 48 h), this compound registered an IC50 of 1.08 ± 0.09 µM.

For the compound `CCOC(=O)CC(NS(=O)(=O)c1ccc(C)cc1)(c1ccccc1)P(=O)(OC)OC` (stereo not shown) [7a, Ethyl 3-(dimethoxyphosphoryl)-3-((4-methylphenyl)sulfonamido)-3-phenylpropanoate], the melting point fell in the range of 98 to 99 °C. The compound further returned an IC50 in data set [1] of more than 50 µM. The compound further yielded an IC50 in data set [2] of more than 50 µM. The compound also showed a half-maximal inhibitory concentration (IC50) in data set [3] (Homo sapiens, A549, 48 h) of 2.66 ± 0.26 µM.

Regarding `CCOC(=O)CC(NS(=O)(=O)c1ccc(C)cc1)(c1ccc(F)cc1F)P(=O)(OC)OC` (stereo not shown) [7m, Ethyl 3-(2,4-difluorophenyl)-3-(dimethoxyphosphoryl)-3-((4-methylphenyl)sulfonamido)propanoate], the melting point was in the range of 135 to 136 °C. Moreover, the IC50 in data set [1] is more than 50 µM. Also, the IC50 in data set [2] is more than 50 µM. This compound also returned an IC50 in data set [3] (Homo sapiens, A549, 48 h) of 2.24 ± 0.31 µM.

Consider `CCOC(=O)CC(NS(=O)(=O)c1ccc(C)cc1)(c1ccc(-c2ccccc2)cc1)P(=O)(OC)OC` (stereo not shown) [7s, Ethyl 3-([1,1’-biphenyl]-4-yl)-3-(dimethoxyphosphoryl)-3-((4-methylphenyl)sulfonamido)propanoate], for which the melting point is 112 to 113 °C. Also, the IC50 in data set [1] was more than 50 µM. The IC50 in data set [2] worked out at 17 ± 1.22 µM. In data set [3] (Homo sapiens, A549, 48 h), the IC50 came out at 1.48 ± 0.4 µM.

The compound `CCOC(=O)CC(NS(=O)(=O)c1ccc(C)cc1)(c1ccc(C)cc1)P(=O)(OC)OC` (stereo not shown) [7b, Ethyl 3-(dimethoxyphosphoryl)-3-((4-methylphenyl)sulfonamido)-3-(p-tolyl)propanoate] displayed a melting point of 117 to 118 °C. This compound came in with an IC50 in data set [1] of 29.6 ± 2.98 µM. In data set [1] (MRC5 cells), the “toxicity toward MRC5 non-malignant cells (in words)” value is “some toxicity”. Also, in data set [2], the “cytotoxicity against SKOV3 cell line (in words)” value was “no activity” and the IC50 was more than 50 µM. This compound registered an IC50 in data set [3] (Homo sapiens, A549, 48 h) of 0.34 ± 0.04 µM.

Turning to `CCOC(=O)CC(NS(=O)(=O)c1ccc(C)cc1)(c1ccccc1F)P(=O)(OC)OC` (stereo not shown) [7l, Ethyl 3-(dimethoxyphosphoryl)-3-(2-fluorophenyl)-3-((4-methylphenyl)sulfonamido)propanoate], the melting point fell in the range of 140 to 141 °C. This compound also showed an IC50 in data set [1] of more than 50 µM. The IC50 in data set [2] was more than 50 µM. Besides, the concentration for half-maximal inhibition (IC50) in data set [3] (Homo sapiens, A549, 48 h) turned out to be 0.9 ± 0.12 µM.

Usually IC50 stands for the point on the concentration scale where inhibition reaches its midpoint. The low end stands for inhibition by little substance, the high end for a need for much substance. A word on the melting point: it is the temperature, or range, at which the solid turns liquid.
